The results in this text go back to US11926614B2, “1,2,4-triazole derivatives as tankyrase inhibitors” (priority 2018, dated 2024).

One test has as its target TNKS2 (Homo sapiens (Human), UniProt Q9H2K2). As to the kind of experiment: Biochemical IC50 TNKS2. The source says:
(§1) XLfit (idbs) was used to determine the IC50-values in inhibition experiments. The following formula was chosen to fit the data points (Langmuir Binding Isotherm): fit=((A+(B*x))+4(C−B)*(1−exp((−1*D)*x)))/D)), res=(y−fit)

Another test concerns HEK293. Briefly: Cellular IC50 HEK293. Type of test: cell-based.
Excerpt: as §1

The mark [1] stands for this setting: read-out: Biochemical IC50 TNKS2.
[2] abbreviates: Homo sapiens, HEK293, read-out: Cellular IC50 HEK293.
[3] abbreviates: Homo sapiens, HEK293, HEK293; read-out: Cellular IC50 HEK293.

Like-named read-outs stand apart in the source and are kept apart here.

Sequence of TNKS2 (Q9H2K2 whole entry): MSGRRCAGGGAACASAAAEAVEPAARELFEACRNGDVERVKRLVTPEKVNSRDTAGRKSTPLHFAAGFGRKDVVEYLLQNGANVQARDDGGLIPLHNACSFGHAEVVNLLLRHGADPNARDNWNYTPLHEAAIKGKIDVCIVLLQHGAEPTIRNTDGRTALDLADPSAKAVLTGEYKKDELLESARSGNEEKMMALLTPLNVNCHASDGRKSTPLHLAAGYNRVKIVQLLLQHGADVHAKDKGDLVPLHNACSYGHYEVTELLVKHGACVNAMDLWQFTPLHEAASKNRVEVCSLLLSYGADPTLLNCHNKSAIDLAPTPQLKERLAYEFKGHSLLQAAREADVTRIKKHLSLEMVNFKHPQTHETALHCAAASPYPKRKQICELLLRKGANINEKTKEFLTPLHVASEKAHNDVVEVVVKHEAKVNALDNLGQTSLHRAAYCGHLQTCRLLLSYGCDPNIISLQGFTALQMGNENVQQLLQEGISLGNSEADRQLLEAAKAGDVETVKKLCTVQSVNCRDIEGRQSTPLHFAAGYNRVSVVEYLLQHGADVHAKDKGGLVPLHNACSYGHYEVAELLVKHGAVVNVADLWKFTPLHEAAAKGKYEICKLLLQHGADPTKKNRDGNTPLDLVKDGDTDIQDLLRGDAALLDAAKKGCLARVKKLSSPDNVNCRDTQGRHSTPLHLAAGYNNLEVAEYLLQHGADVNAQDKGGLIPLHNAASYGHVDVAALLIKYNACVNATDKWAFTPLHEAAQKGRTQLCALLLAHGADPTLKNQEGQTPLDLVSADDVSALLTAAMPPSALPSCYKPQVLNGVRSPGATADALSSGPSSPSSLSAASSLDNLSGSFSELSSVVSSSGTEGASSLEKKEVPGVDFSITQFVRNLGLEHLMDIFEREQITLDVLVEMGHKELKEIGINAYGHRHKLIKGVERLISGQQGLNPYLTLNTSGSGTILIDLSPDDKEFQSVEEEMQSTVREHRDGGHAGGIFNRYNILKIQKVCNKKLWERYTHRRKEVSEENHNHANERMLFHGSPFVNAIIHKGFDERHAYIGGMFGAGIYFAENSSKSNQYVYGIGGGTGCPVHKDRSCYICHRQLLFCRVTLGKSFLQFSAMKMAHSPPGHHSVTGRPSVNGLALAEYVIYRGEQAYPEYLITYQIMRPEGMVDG

Usually IC50 stands for the midpoint of a concentration-inhibition curve. As for `CCOc1ccc(-c2nnc([C@H]3C[C@H](NC(=O)c4ccnc5cccnc45)C3)n2-c2ccncc2)nc1` [Example 168, N-((1r,3r)-3-(5-(5-ethoxypyridin-2-yl)-4-(pyridin-4-yl)-4H-1,2,4-triazol-3-yl)cyclobutyl)-1,5-naphthyridine-4-carboxamide], the IC50 is 5.4 nM on TNKS2 (setting [1]) and 13 nM in the test on HEK293 (setting [2]).
On to `CCOc1ccc(-c2nnc([C@H]3C[C@H](NC(=O)c4cn(C)cn4)C3)n2-c2ccccc2F)nc1` [Example 117, N-((1S,3r)-3-(5-(5-ethoxypyridin-2-yl)-4-(2-fluorophenyl)-4H-1,2,4-triazol-3-yl)cyclobutyl)-1-methyl-1H-imidazole-4-carboxamide], for which the IC50 at TNKS2 (setting [1]) is 87 nM; in the test on HEK293 (setting [3]) it was 550 nM.
In the case of `CCOc1ccc(-c2nnc([C@H]3C[C@H](NC(=O)c4cccc(C(F)(F)F)n4)C3)n2-c2ccccc2F)nc1` [Example 125, N-((1S,3r)-3-(5-(5-ethoxypyridin-2-yl)-4-(2-fluorophenyl)-4H-1,2,4-triazol-3-yl)cyclobutyl)-6-(trifluoromethyl)picolinamide], the IC50 at TNKS2 (setting [1]) turned out to be 28 nM; in the test on HEK293 (setting [3]), 70 nM.
With `CCOc1ccc(-c2nnc([C@H]3C[C@H](NC(=O)c4ccnc5cccnc45)C3)n2-c2ccccc2Cl)nc1` [Example 135, N-((1S,3r)-3-(4-(2-chlorophenyl)-5-(5-ethoxypyridin-2-yl)-4H-1,2,4-triazol-3-yl)cyclobutyl)-1,5-naphthyridine-4-carboxamide], the figures for the IC50 at TNKS2 (setting [1]) and in the test with HEK293 (setting [3]) were 1.9 nM and 0.33 nM, respectively.
Take `CCOc1ccc(-c2nnc([C@H]3C[C@H](NC(=O)c4cc5ccncc5[nH]4)C3)n2-c2ccccc2F)nc1` [Example 126, N-((1S,3r)-3-(5-(5-ethoxypyridin-2-yl)-4-(2-fluorophenyl)-4H-1,2,4-triazol-3-yl)cyclobutyl)-1H-pyrrolo[2,3-c]pyridine-2-carboxamide]: the half-maximal inhibitory concentration (IC50) worked out at 4.1 nM on TNKS2 (setting [1]) and 27 nM in the test on HEK293 (setting [3]).
Consider `O=C(N[C@H]1C[C@H](c2nnc(-c3ccncn3)n2-c2ccccc2Cl)C1)c1ccncc1` [Example 8, N-((1S,3r)-3-(4-(2-chlorophenyl)-5-(pyrimidin-4-yl)-4H-1,2,4-triazol-3-yl)cyclobutyl)isonicotinamide], for which the IC50 on TNKS2 (setting [1]) was 57 nM; with HEK293 (setting [3]), 70 nM.
For `CCOc1ccc(-c2nnc([C@H]3C[C@H](NC(=O)c4ccc5cc(F)ccc5n4)C3)n2-c2ccccc2F)nc1` [Example 155, N-((1S,3r)-3-(5-(5-ethoxypyridin-2-yl)-4-(2-fluorophenyl)-4H-1,2,4-triazol-3-yl)cyclobutyl)-6-fluoroquinoline-2-carboxamide], in that order: 9.1 nM and 12 nM.
Take `O=C(N[C@H]1C[C@H](c2nnc(-c3ccncn3)n2-c2ccccc2Cl)C1)c1ccnc2ccccc12` [Example 6, N-((1S,3r)-3-(4-(2-chlorophenyl)-5-(pyrimidin-4-yl)-4H-1,2,4-triazol-3-yl)cyclobutyl)quinoline-4-carboxamide]: the figures for the IC50 on TNKS2 (setting [1]) and in the test with HEK293 (setting [3]) were 680 nM and 1300 nM, respectively.
With `O=C(N[C@H]1C[C@H](c2nnc(-c3nccs3)n2-c2ccc(Cl)s2)C1)c1ccnc2cccnc12` [Example 78, N-((1r,3r)-3-(4-(5-chlorothiophen-2-yl)-5-(thiazol-2-yl)-4H-1,2,4-triazol-3-yl)cyclobutyl)-1,5-naphthridine-4-carboxamide], the IC50 on TNKS2 (setting [1]) was 2 nM; in the test on HEK293 (setting [3]), 1.1 nM.
With `CC(C)Oc1ccc(-c2nnc([C@H]3C[C@H](NC(=O)c4ccccn4)C3)n2-c2ccccc2F)nc1` [Example 111, N-((1S,3r)-3-(4-(2-fluorophenyl)-5-(5-isopropoxypyridin-2-yl)-4H-1,2,4-triazol-3-yl)cyclobutyl)picolinamide], the IC50 on TNKS2 (setting [1]) was found to be 12 nM; in the test on HEK293 (setting [2]) it was 110 nM.
As to `O=C(N[C@H]1C[C@H](c2nnc(-c3nccs3)n2-c2ccc(Cl)s2)C1)c1ccccn1` [Example 79, N-((1r,3r)-3-(4-(5-chlorothiophen-2-yl)-5-(thiazol-2-yl)-4H-1,2,4-triazol-3-yl)cyclobutyl)picolinamide], the results for the IC50 at TNKS2 (setting [1]) and in the test with HEK293 (setting [3]) were 27 nM and 140 nM, respectively.
As for `CCOc1ccc(-c2nnc([C@H]3C[C@H](NC(=O)c4ccc5ncccc5n4)C3)n2-c2ccncc2)nc1` [Example 169, N-((1r,3r)-3-(5-(5-ethoxypyridin-2-yl)-4-(pyridin-4-yl)-4H-1,2,4-triazol-3-yl)cyclobutyl)-1,5-naphthyridine-2-carboxamide], the half-inhibitory concentration (IC50) is 28 nM on TNKS2 (setting [1]) and 58 nM with HEK293 (setting [3]).
For `O=C(N[C@H]1C[C@H](c2nnc(-c3nccs3)n2-c2ccncc2)C1)c1cccc2cccnc12` [Example 146, N-((1r,3r)-3-(4-(pyridin-4-yl)-5-(thiazol-2-yl)-4H-1,2,4-triazol-3-yl)cyclobutyl)quinoline-8-carboxamide], the IC50 at TNKS2 (setting [1]) came to 16 nM; in the test on HEK293 (setting [3]), 80 nM.
Regarding `O=C(N[C@H]1C[C@H](c2nnc(-c3ccncn3)n2-c2ccccc2Cl)C1)c1cccnc1` [Example 9, N-((1S,3r)-3-(4-(2-chlorophenyl)-5-(pyrimidin-4-yl)-4H-1,2,4-triazol-3-yl)cyclobutyl)nicotinamide], the 50% inhibitory concentration (IC50) came to 18 nM at TNKS2 (setting [1]) and 50 nM in the test with HEK293 (setting [3]).
Consider `CCOc1ccc(-c2nnc([C@H]3C[C@H](NC(=O)c4cccc5cccnc45)C3)n2-c2ccc(C)s2)nc1` [Example 83, N-((1r,3r)-3-(5-(5-ethoxypyridin-2-yl)-4-(5-methylthiophen-2-yl)-4H-1,2,4-triazol-3-yl)cyclobutyl)quinoline-8-carboxamide], for which the IC50 turned out to be 2.4 nM on TNKS2 (setting [1]) and 1 nM in the test on HEK293 (setting [2]).
In the case of `[2H]C([2H])([2H])C([2H])([2H])Oc1ccc(-c2nnc([C@H]3C[C@H](NC(=O)c4ccnc5cc(F)cnc45)C3)n2-c2ccccc2F)nc1` [Example 94, N-((1S,3r)-3-(5-(5-(ethoxy-d5)pyridin-2-yl)-4-(2-fluorophenyl)-4H-1,2,4-triazol-3-yl)cyclobutyl)-7-fluoro-1,5-naphthyridine-4-carboxamide], the IC50 was found to be 2.7 nM against TNKS2 and 0.45 nM in the test on HEK293 (Homo sapiens, HEK293; read-out: Cellular IC50 HEK293).
Take `CCOc1ccc(-c2nnc([C@H]3C[C@H](NC(=O)c4ccnc5cc(F)cnc45)C3)n2-c2ccccn2)nc1` [Example 160, N-((1r,3r)-3-(5-(5-ethoxypyridin-2-yl)-4-(pyridin-2-yl)-4H-1,2,4-triazol-3-yl)cyclobutyl)-7-fluoro-1,5-naphthyridine-4-carboxamide]: the IC50 amounted to 22 nM at TNKS2 (setting [1]) and 9 nM with HEK293 (setting [2]).
For `CCOc1ccc(-c2nnc([C@H]3C[C@H](NC(=O)c4ccnc5cc(F)cnc45)C3)n2-c2ccc(C)s2)nc1` [Example 84, N-((1r,3r)-3-(5-(5-ethoxypyridin-2-yl)-4-(5-methylthiophen-2-yl)-4H-1,2,4-triazol-3-yl)cyclobutyl)-7-fluoro-1,5-naphthyridine-4-carboxamide] the same measures were 1.6 nM and 1 nM.
`O=C(N[C@H]1C[C@H](c2nnc(-c3ccncn3)n2-c2ccccc2Cl)C1)c1cccc(F)c1` [Example 14, N-((1S,3r)-3-(4-(2-chlorophenyl)-5-(pyrimidin-4-yl)-4H-1,2,4-triazol-3-yl)cyclobutyl)-3-fluorobenzamide]: the values for the IC50 at TNKS2 (setting [1]) and in the test on HEK293 (setting [3]) were 6.7 nM and 40 nM, respectively.
With `CCOc1ccc(-c2nnc([C@H]3C[C@H](NC(=O)c4cccc5cccnc45)C3)n2-c2ccccc2F)nc1` [Example 60, N-((1S,3r)-3-(5-(5-ethoxypyridin-2-yl)-4-(2-fluorophenyl)-4H-1,2,4-triazol-3-yl)cyclobutyl)quinoline-8-carboxamide], the 50% inhibitory concentration (IC50) was 2.1 nM at TNKS2 (setting [1]) and 1.1 nM in the test with HEK293 (setting [3]).
Consider `[2H]C([2H])([2H])C([2H])([2H])Oc1ccc(-c2nnc([C@H]3C[C@H](NC(=O)c4cccc5cccnc45)C3)n2-c2ccccc2F)nc1` [Example 95, N-((1S,3r)-3-(5-(5-(ethoxy-d5)pyridin-2-yl)-4-(2-fluorophenyl)-4H-1,2,4-triazol-3-yl)cyclobutyl)quinoline-8-carboxamide], for which the IC50 was found to be 3.5 nM against TNKS2 and 0.48 nM in the test on HEK293 (setting [3]).
For `O=C(N[C@H]1C[C@H](c2nnc(-c3nccs3)n2-c2ccccc2Cl)C1)c1ccnc2cccnc12` [Example 41, N-((1S,3r)-3-(4-(2-chlorophenyl)-5-(thiazol-2-yl)-4H-1,2,4-triazol-3-yl)cyclobutyl)-1,5-naphthyridine-4-carboxamide], the IC50 at TNKS2 (setting [1]) is 2 nM; with HEK293 (setting [3]), 0.65 nM.
For `O=C(N[C@H]1C[C@H](c2nnc(-c3ccccc3)n2-c2ccccc2F)C1)c1ccnc2cccnc12` [Example 176, N-((1S,3r)-3-(4-(2-fluorophenyl)-5-phenyl-4H-1,2,4-triazol-3-yl)cyclobutyl)-1,5-naphthyridine-4-carboxamide] the same measures were 3.6 nM and 28 nM.
`CCOc1ccc(-c2nnc([C@H]3C[C@H](NC(=O)c4ccc5cnccc5n4)C3)n2-c2ccccc2F)nc1` [Example 97, N-((1S,3r)-3-(5-(5-ethoxypyridin-2-yl)-4-(2-fluorophenyl)-4H-1,2,4-triazol-3-yl)cyclobutyl)-1,6-naphthyridine-2-carboxamide]: the IC50 amounted to 2.5 nM at TNKS2 (setting [1]) and 7.5 nM in the test with HEK293 (setting [3]).
Consider `O=C(N[C@H]1C[C@H](c2nnc(-c3nccs3)n2-c2ccccc2)C1)c1ccc(F)cc1` [Example 35, 4-fluoro-N-((1r,3r)-3-(4-phenyl-5-(thiazol-2-yl)-4H-1,2,4-triazol-3-yl)cyclobutyl)benzamide], for which the IC50 is 120 nM on TNKS2 (setting [1]) and 580 nM in the test on HEK293 (setting [3]).
For `O=C(NC12CC(c3nnc(-c4ccncn4)n3-c3ccccc3Cl)(C1)C2)c1ccnc2cccnc12` [Example 21, N-(3-(4-(2-chlorophenyl)-5-(pyrimidin-4-yl)-4H-1,2,4-triazol-3-yl)bicyclo[1.1.1]pentan-1-yl)-1,5-naphthyridine-4-carboxamide], in that order: 1.8 nM and 0.5 nM.
